This note sets out measurements from article PMC9170106, “Pre-clinical evaluation of LASSBio-1491: From in vitro pharmacokinetic study to in vivo leishmanicidal activity” (PLoS ONE, 2022).

Data set [1] is described as follows: Microsomal metabolism. The class given is in vitro ADME. The following applies: rat liver microsomes. As to the method:
The study of the microsomal metabolism of the compounds was evaluated by placing 1 mg/ml rat liver microsome in a microcentrifuge tube, in the presence of a NADPH generator system (1 mM NADP^+, 1.5 mM MgCl2, 3.5 mM glucose-6-phosphate and 0.5 U/mL glucose-6-phosphate dehydrogenase) and phosphate buffer pH 7.4 in sufficient quantity for 250 μL. After 15 minutes of pre-incubation at 37°C in a water bath, the enzymatic reactions were started by adding 2 μL of a stock solution 1 mM from one of the prototypes (500 μL 20% DMSO 80% CH3CN), so that a final concentration of 5 μM was reached (0.2% DMSO, 0.8% acetonitrile).
Then, the samples were again incubated at 37°C under agitation for predetermined and fixed periods (0, 15, 30, 45 and 60 minutes). At the end of the incubation period 500 μL of cold methanol and 500 μL of cold acetonitrile containing 5 μM of methyl 1,1’biphenyl-4-carboxylate 5 μM (internal standard) were added to the wells to stop the reaction and the samples were homogenized and kept in an ice bath to accelerate protein precipitation. The mixture was centrifuged at 24500 x g for 15 minutes at 4°C (Universal centrifuge 320R Hettich®). Finally, the supernatant (1 mL) was filtrated and placed in vials to be analyzed by HPLC-PDA, Shimadzu—LC20AD, Kromasil C-18 column (4.6 mm x 250 mm, 5 μm), SPD M20A diode array detector, flow 1 mL/min, mobile phase acetonitrile: water 1:1 (v/v) for LASSBio-1491 and acetonitrile: water 60:40 (v/v) for LASSBio-1736, 20 minutes at 254 nm wavelength. Then, the microsomal half-life and clearance were calculated.
(Liver microsomes are a subcellular fraction often used to study metabolism.)

The next data set is described as follows: PAMPA-GIT permeability. The source says: The parallel artificial membrane permeability assay uses 96-well plate in a “sandwich” type system, where one plate overlaps the other (PAMPA). […] The lipid mixture that impregnates the PVDF filter has a different constitution for the permeability tests for the blood-brain barrier (Brain lipid from pig extract in dodecane) and gastro-intestinal tract (L-α soy phosphatidylcholine in dodecane). In the PAMPA BBB and TGI assays, the optical density values obtained in the reading at each selected wavelength, for each of the compounds were analyzed in comparison with the values of several controls. In the case of the BBB, these values were used to elaborate an equation and determine the permeability coefficient (Pe), using a previously elaborated spreadsheet, and, for the TGI, these values were used to determine the absorbed fraction (Fa%), both using the Excel® program.
A general note: PAMPA measures passive passage across an artificial lipid membrane.

Data set [2] has as its system L. major promastigote 5-ASKH substrain. Nature of the data set: In vitro activity against promastigotes, 5-ASKH. Type of data set: cell-based, Leishmania major. As to the method:
(§1) L. major promastigotes LV39 (MRHO/SU/59/P) were obtained from João […] Preto Medical School- USP. L. major IOC/[…] promastigotes (MHOM/SU/1973/5-ASKH) were obtained from Leishmania collection of the Oswaldo Cruz Institute-Fiocruz. L. major promastigotes LV39 (MRHO/SU/59/P) and L. major IOC/[…] (MHOM/SU/1973/5-ASKH) were grown in a Schneider's medium (Sigma-Aldrich, St. […] The determination of the leishmanicidal activity of LASSBio-1491 against L. major promastigotes was carried out according to the methodology described by […] and colleagues (1996). […] After 48h of incubation in a Biochemical Oxygen Demand (B.O.D.) incubator, the promastigotes were counted using a hemocytometer. The results obtained were expressed as the mean ± S.E.M. of the number of promastigotes from triplicate cultures of representative assays, with the data analyzed by ANOVA and Dunnett hoc tests, considering a significance level of p < 0.05.

In data set [3] the test system is L. major promastigote LV39 substrain. Nature of the data set: In vitro activity against promastigotes, LV39. The class given is cell-based. To be noted: Leishmania major. As to the method: as §1
Data set [4] can be described thus: Microsomal metabolism. Type of data set: in vitro ADME. The following applies: rat liver microsomes, without NADPH regenerating system.
A further data set in a line: Plasma stability. The class given is in vitro ADME, rat. The protocol:
For analysis of plasma stability, the LASSBio-1491 in a final concentration of 5 μM from stock solution of 1 mM, was added in 50 μL of rat plasma solution diluted in 250 μL with PBS (pH 7.4) and was placed in a shaker at 37 °C under vigorous stirring for 0, 30, 60, 120 and 240 minutes. After each reaction time, 500 μL of cold methanol and 500 μL of cold acetonitrile containing 5 uM of methyl 1,1’biphenyl-4-carboxylate 5 μM (internal standard) were added to the wells to stop the reaction. The solution was mixed and centrifuged at 24500 x g for 15 min (Universal centrifuge 320R Hettich®). The supernatant (1 mL) was filtrated and placed in vials to be analyzed by HPLC-PDA, Shimadzu—LC20AD, Kromasil C-18 column (4.6 mm x 250 mm, 5 μm), SPD M20A diode array detector, flow 1 mL/min, mobile phase acetonitrile: water 1:1 (v/v) for LASSBio-1491 and acetonitrile: water 60:40 (v/v) for LASSBio-1736, for 20 minutes at 254 nm wavelength.

A further data set relates to spleen cells. Kind of data set: Cytotoxicity against spleen cells (propidium iodide). The following applies: Mus musculus, 24 h. As to the method: To carry out the suspension preparation of spleen cells, BALB/c mice were euthanized, and an incision was made to remove the spleen. The spleens were macerated using the end of the plungers from a 1 mL syringe in a 70 μm strainer placed in a Petri dish containing RPMI medium. […] After incubation for 4 min at room temperature, the cells were washed with RPMI medium. Subsequently, samples from three animals were pooled and the cell suspension was passed through a 40 μm strainer. Cells were counted in a Neubauer chamber and splenocytes were plated at a concentration of 5 x 10^5 cells per well in a 96-well culture plate. […] Moreover, spleen cells were also cultured just with medium (free of compounds or vehicle) or with DMSO 0.1%. […] After, the propidium iodide incorporation was performed according to the instructions of the Propidium Iodide Kit (Sigma, Copenhagen, Denmark). The splenocytes were analyzed in a FACS Canto II flow cytometer. The data files were saved using FACS Diva software and data analysis was done using Flow Jo software. […] Data obtained from experiments were expressed as the mean ± standard error of the mean (S.E.M.) of spleen died cells and statistical differences between the treated and the vehicle groups of experiments were evaluated by ANOVA and Dunnett hoc tests.

The structures appear in SMILES notation. Where only a bound is given, the exact number is not on record here.

By half-life is commonly meant the time in which the quantity being followed falls by half. As a reminder, the microsomal CLint is the rate of metabolic loss divided by the concentration. A higher microsomal CLint goes with rapid turnover. For orientation: Papp means a coefficient for how fast a substance crosses the barrier. Lower therefore signals slow passage. The IC50 is the concentration that inhibits the measured activity by half. Read a low IC50 as inhibition by little substance.

As for `O=C(N/N=C/c1ccc([N+](=O)[O-])o1)NNC(=O)c1ccc(Cl)cc1` [LASSBio-1491], the half-life at 5 μM in “Microsomal metabolism [1]” (pH 7.4, with co-factor) is 161 min; in “Plasma stability” (rat, rat plasma diluted with PBS, pH 7.4, rat plasma) it was 1730 min. For the same molecule, in “Microsomal metabolism [1]” (pH 7.4, with co-factor, Volume x (0,693/t1/2)), the microsomal CLint at 5 μM is 1.07 µL/min/mg. The “Metabolism rate with co-factor” value in the data set “Microsomal metabolism [1]” (with NADPH regenerating system) is listed as 25.46%. For the same molecule, the “Elimination rate constant (k)” value was found to be 0.0043 in “Microsomal metabolism [1]” (with co-factor) and 0.0006 in the data set “Plasma stability” (rat plasma). In “Microsomal metabolism [1]” (with co-factor, scaled to liver and rat weight), the Clapp came to 0.166 mL/min/kg. Besides, the Classification result in “PAMPA-GIT permeability” (GIT-PAMPA) is “High (high intestinal permeability (70–100%))”. In the data set “PAMPA-GIT permeability” (GIT-PAMPA, absorbed fraction), this molecule came in with a Fa experimental of 78.8%. The Papp in the data set “PAMPA-GIT permeability” (PAMPA) came to 4.08 ×10⁻⁶ cm/s. The “times less potent than pentamidine” value in data set [2] is reported as “about 10 times”. Moreover, the IC50 in data set [2] (Leishmania major, 48 h) is 7.5 ± 0.3 µM; in data set [3] (promastigote LV39, 48 h), 7.7 ± 0.1 µM; with spleen cells, greater than 100 µM. Also, the Emax in data set [2] (Leishmania major, read-out: Maximum effect (% ± S.E.M.)) amounted to 68.4 ± 0.1%; in data set [3] (promastigote LV39, read-out: Maximum effect (% ± S.E.M.)) it was 68.3 ± 0.2%. In the data set “Microsomal metabolism [4]”, the “Metabolism rate non co-factor” value was 10.87%. Further, the t1/2 in “Plasma stability” (rat plasma) stood at 19.25 h. In “Plasma stability” (rat plasma, 5 μM, 37 °C, up to 240 min), this molecule gave a Metabolism rate of 15.11%. Besides, the recovery at 5 μM in the data set “Plasma stability” (rat, rat plasma diluted with PBS, pH 7.4, read-out: Recovery rate) is 88.5%.
